Tested on: RhoA
Assay: thrombin induced RhoA activation in HUVEC culture (active RhoA pull-down, Western blot)
Type: cell-based, human
Details: 5 U/ml thrombin alone, 5 min
Procedure: The biological effect of the compounds was established in a model using thrombin induced RhoA activation in human umbilical vein endothelial cell (HUVEC) culture.
HUVEC are grown to confluence under standard conditions. Before induction of Rho activity HUVEC were starved for 4 h by using IMDM (Gibco) without growth factor and serum supplements. After the starvation period, 5 U/ml Thrombin (Calbiochem) or 5 U thrombin plus 50 μg/ml of test compound was added to the starvation medium for 1, 5 and 10 min. Active RhoA was isolated using Rho Assay Reagent from Upstate according to manufactures instructions. Isolates were separated on a 15% polyacrylamide gel and blotted on Nitrocellulose-Membrane (Bio-Rad). RhoA was detected by using Anti-Rho (-A, -B, -C), clone55 from Upstate (1:500).

## thrombin
  Relative RhoA stimulation compared to unstimulated control: 5.6

From patent US7884074B2, “Compounds and methods for prevention and/or treatment of inflammation using the same” (Ikaria Development Subsidiary Two, LLC, priority 2008, dated 2011)
